Results published in patent US11718592B2, “Oxadiazole derivative” (Sumitomo Pharma Co., Ltd., priority 2020, dated 2023).
Like-named read-outs stand apart in the source and are kept apart here.

Assays:
[1] = system: ddY male mice; test: Test with model produced by subcutaneous injection of pentetrazol (minimum convulsion model, scPTZ); type: in vivo; details: 25 mg/kg oral administration
Description: In order to evaluate an antiepileptic drug, in general, a model produced by subcutaneous injection of pentetrazol (minimum convulsion model, scPTZ) is used, which has high clinical predictability. […] In this test, an animal model which expresses generalized absence seizure or myoclonic seizure was used. Test compounds were orally administered to Sic: ddY male mice (purchased from Japan SLC, Inc., 5 mice in each group, body weight 20-30 g). After an hour, pentetrazol (85 mg/kg) was subcutaneously administered. […] To control mice, 0.5% methylcellulose solution was administered, and the same test was done. The results are represented as the number of mice with no convulsion, per 5 mice. The present test was deemed to succeed when 4 mice among 5 mice in the control group developed convulsions.

[2] = system: Slc: ddy male mice; details: mouse, in vivo, po, 1 h
Description: The present test is a test for evaluating whether the test compound may disturb coordinated movement or not. Rotarod is an apparatus equipped with a rotating columnar bar whose diameter is 4 cm, in which a mouse is made to walk on the rotating bar, and the coordinated movement is evaluated from the result of walking (can walk or cannot walk). Slc: ddy male mice (purchased from Japan SLC, Inc., body weight: 20-30 g) were trained 3 hours before the test starts so that they could walk on a rotarod apparatus rotating with a speed of 12 rotations per minute for 5 minutes without falling. Only the mice which can walk in the training are used in the test. The test compound was orally administered to a group consisting of 5 mice. […] To control mice, 0.5% methylcellulose solution was administered as test compound, and the same test was also done. The coordinated movement was evaluated with the average of the five mice's walking time (second).

[3] = system: GABA(A) receptors; test: Evaluation of the potentiating effect on GABA(A) receptors (electrophysiology, GABA(A) receptor expressing cells); type: cell-based; details: for Inhibition rate to the increased electric current by adding flumazenil: 2 μM GABA and test compound with 10 μM flumazenil; for The potentiating effect on GABA(A) receptors EC20: concentration giving 20% increase of the current generated by 2 μM GABA
Description: Using GABA(A) receptor expressing cells prepared according to Guideline for Generation of Stable Cell Lines (website of Lonza Japan; Non-patent Literature 4), the present test is done for evaluating the potentiating effect of a drug on GABA(A) receptors based on the electric current raised by GABA. The GABA(A) receptor expressing cells were used in electrophysiological study, wherein the electric current was measured when 2 μM GABA solution and then a mixture of 2 μM GABA and the test compound were added to the cells. […] In addition, the electric current generated by a mixture of 2 μM GABA solution and the test compound with 10 μM flumazenil was measured, and the inhibition rate for the electric current by adding flumazenil was calculated compared to the electric current obtained in the absence of flumazenil.

[4] = system: BALB/c-Scn1a<+/−> mice; test: Anticonvulsant effect in mouse model of Dravet syndrome with febrile seizures; type: in vivo; details: oral; for Difference of the threshold temperature of convulsion from that of the control group: at the dose for anticonvulsive effect, hyperthermia 50 minutes after dosing; for Dose for anticonvulsive effect: dose needed to raise the threshold body temperature for inducing febrile seizures significantly compared with the control group
Source text: This is a test for evaluating the anticonvulsant effect for febrile seizures of the test compounds in a mouse model of Dravet syndrome. In this test, BALB/c-Scn1a<+/−> mice were used (catalog number: RBRC06422; they are available from RIKEN BioResource Research Center via the National BioResource Project). The present mouse model having a mutation in a responsible gene for Dravet syndrome, Scn1A, presents with symptoms similar to febrile seizures caused by hyperthermia which is a symptom in a patient suffering from Dravet syndrome, and can be used as an animal model of spontaneous Dravet syndrome (for reference: the Japan Epilepsy Research Foundation, Annual Report 2015: 26: 69-76). To male mice model of Dravet syndrome (one group: 5-8 mice, body weight: 20-30 g) were orally administered the test compound. 50 minutes later, the mice were put in a chamber warmed with hot bath to evoke hyperthermia, and observed about the development of febrile seizures. Immediately after febrile seizure was developed, the rectal temperature was measured and used as the threshold body temperature for inducing febrile seizures.

| SMILES | animals exhibiting anticonvulsant action (in words) [1] | average of the five mice's walking time ([2]; 25 mg/kg) [s] | average of the five mice's walking time ([2]; 50 mg/kg) [s] | average of the five mice's walking time ([2]; 100 mg/kg) [s] | Inhibition rate to the increased electric current by adding flumazenil [3] [%] | The potentiating effect on GABA(A) receptors EC20 [3] [µM] | Difference of the threshold temperature of convulsion from that of the control group [4] [°C] | Dose for anticonvulsive effect [4] [mg/kg] |
| --- | --- | --- | --- | --- | --- | --- | --- | --- |
| CN1C(=O)CC[C@H]1c1nc(-c2ccc(F)cc2)no1 (single isomer, unassigned) [Example 31] | more than half of the animals | 180 | 53.2 | 0 | <0 | 15 | 0.3 | 12.5 |
| CC(C)(C(N)=O)c1nnc(-c2ccc(Br)cc2)o1 [Example 16, 2-[5-(4-bromophenyl)-1,3,4-oxadiazol-2-yl]-2-methylpropanamide] | more than half of the animals | – | – | 180 | – | >300 | – | – |
| CN1C(=O)CCC1c1nc(-c2ccc(F)cc2)no1 (stereo not shown) [Example 25, 5-[3-(4-Fluorophenyl)-1,2,4-oxadiazol-5-yl]-1-methylpyrrolidin-2-one] | more than half of the animals | 180 | 144.8 | – | 12 | 16 | 0.3 | 12.5 |
| CN1C(=O)CCC1(C)c1nc(-c2ccc(F)cc2)no1 (stereo not shown) [Example 28, 5-[3-(4-fluorophenyl)-1,2,4-oxadiazol-5-yl]-1,5-dimethylpyrrolidin-2-one] | more than half of the animals | – | 180 | – | 24 | 9.3 | – | – |
